Test results taken from patent publication US8927520B2, “Antibacterial compounds” (Institut Pasteur, priority 2010, dated 2015).
pKi: −log10 of the molar value.

Experiments:
[1] = system: Staphylococcus aureus S25 strain; test: Bactericidal activity assay; format: cell-based; conditions: S. aureus, overnight at 37° C., inhibitor 1 to 100 μg/mL, CFU count
Experimental: 100 μL suspensions of S. aureus corresponding to 2.10^3 bacteria were incubated overnight at 37° C. with increasing concentrations of inhibitor (1 to 100 μg/mL). Bacterial killing (percent) was determined as the ratio of colony forming units after incubation with inhibitor to that of colony forming units after incubation with buffer alone. Data are mean values ±SD from three separate experiments. * indicates a statistical significance in Student's t-test of p<0.05.
The Staphylococcus aureus S25 strain, a human clinical isolate, was grown overnight in brain heart infusion (BHI) broth at 200 rpm and 37° C. Overnight cultures were diluted to OD600nm=0.05 in BHI-phosphate buffer saline (25% v/v). Bacteria were grown at 200 rpm and 37° C. until cultures reached OD600nm=0.5. Bacterial suspensions were adjusted to a concentration of 2.10^5 bacteriamL. In a microtiter plate, 2.10^3 bacteria were incubated overnight at 200 rpm and 37° C. with increasing concentrations of NADK inhibitor in 0.1 mL BHI-phosphate buffer saline (25% v/v) per well. To quantify the bactericidal activity, each bacterial suspension was serially diluted in BHI and plated on BHI agar plates in duplicates. Plates were incubated at 37° C. for 24 h to 48 h and the number of colony forming units was determined.

[2] = molecular target: LmNADK1 (NADK from Lysteria monocytogenes) (Listeria monocytogenes serovar 1/2a (strain ATCC BAA-679 / EGD-e), UniProt Q8Y8D7); test: NAD kinase activity assay (coupled Glucose-6-phosphate dehydrogenase, absorbance at 340 nm); format: biochemical; conditions: for pKi: Dixon plots, 4 mM ATP, NAD 0.2, 0.5 and 1 mM, read-out: Ki, NADK from Lm; for Inhibition of LmNADK1 (in words): purified enzyme
Experimental: (§1) Expression, purification and activity assay. His-tagged LmNADK1 wild-type and His-tagged SaNADK were expressed and purified on cobalt-based IMAC resins (Clontech) as previously published^13. The NAD kinase activity was determined by measuring the absorbance at 340 nm to follow the formation of reduced NADP produced by a coupling enzyme (Glucose-6-phosphate dehydrogenase from yeast). Coupling enzyme and its substrate were purchased from Sigma-Aldrich. The assay was performed in a 0.5 mL sample of (50 mM Tris-HCl pH 7.4, 10 mM MgCl2, 1 mM Glucose-6-phosphate, 2 mM sodium citrate) containing Glucose-6-phosphate dehydrogenase and NADK at 30° C. using a spectrophotometer Eppendorf ECOM 6122.
(§2) For inhibitor assays, IC50 was determined, in the presence of 1 mM NAD and 4 mM ATP (for LmNADK1) or 2 mM ATP (for SaNADK). Dixon plots were used to determine KI in the presence of 4 mM ATP (for LmNADK11) or 2 mM ATP (for Sa NADK) and three NAD concentrations (0.2, 0.5 and 1 mM). It was also checked that the inhibitors had no effect on the coupling enzyme activity.

[3] = molecular target: SaNADK (NADK from Staphylococcus aureus) (Staphylococcus aureus (strain COL), UniProt Q5HH78); test: as above; format: biochemical; conditions: Dixon plots; 2 mM ATP; NAD 0.2, 0.5 and 1 mM; read-out: Ki, NADK from Sa
Experimental: as §1, §2

[4] = system: Staphylococcus aureus S25 strain; conditions: reference value for comparison; cited from earlier work
[5] = molecular target: NADK from Listeria monocytogenes (Listeria monocytogenes serovar 1/2a (strain ATCC BAA-679 / EGD-e), UniProt Q8Y8D7); conditions: literature value; read-out: K (affinity), inhibition of NADK; cited from earlier work

| Compound | Concentration giving significant bactericidal activity [1] | pKi [2] | Inhibition of LmNADK1 (in words) [2] | pKi [3] | Efficiency of reference compound (bactericidal concentration) [4] | pKi [5] |
| --- | --- | --- | --- | --- | --- | --- |
| 5′-Amino-5′-deoxyadenosin-8-yl-thio-N-[(5′-amino-5′-deoxy-adenosine)methyl]acetamide [Inhibitor 17] | 1 µg/mL | 4.52 | micromolar range | 4.30 | – | – |
| 8-[3-(Adenosin-5′-yl)methoxyprop-1-yn-1-yl]adenosine [Inhibitor 22] | 1 µg/mL | 4.70 | micromolar range | 4.82 | – | – |
| Nc1ncnc2c1ncn2[C@@H]1O[C@H](CNCC#Cc2nc3c(N)ncnc3n2[C@@H]2O[C@H](CO)[C@@H](O)[C@H]2O)[C@@H](O)[C@H]1O [Inhibitor 19, 8-[3-N-(5′-Deoxyadenosin-5′-yl)aminoprop-1-yn-1-yl]adenosine] | 10 µg/mL | 5.00 | micromolar range | 5.30 | – | – |
| CN[C@H](CC(C)C)C(=O)N[C@H]1C(=O)N[C@@H](CC(N)=O)C(=O)N[C@H]2C(=O)N[C@H]3C(=O)N[C@H](C(=O)N[C@H](C(=O)O)c4cc(O)cc(O)c4-c4cc3ccc4O)[C@H](O)c3ccc(c(Cl)c3)Oc3cc2cc(c3O[C@@H]2O[C@H](CO)[C@@H](O)[C@H](O)[C@H]2O[C@H]2C[C@](C)(N)[C@H](O)[C@H](C)O2)Oc2ccc(cc2Cl)[C@H]1O [vancomycin] | – | – | – | – | 8 µg/mL | – |
| Di-5′-thioadenosine [DTA] | – | – | – | – | – | ~4.70 |
